# Numbered stars: 1 amine (or outer) side, 2 acyl side, 3 side chain; on linkers, the order of the positions; unused ones are H or OH. Peptide text beside a SMILES is read from it. * marks the point of attachment. C20 diacid = O=C(O)CCCCCCCCCCCCCCCCCCC(=O)*; γGlu = O=C(O)[C@H](CCC(=O)[*:2])N[*:1]; AEEA = NCCOCCOCC(=O)O
# Experiment: Assay (IV) determination of solubility
# Type: physicochemical
# Method: Assay (IV)—Determination of Solubility
# The mimylin peptide was dissolved in water at ˜500 nmol/ml and mixed 1:1 with a series of buffers (100 mM glycylglycine pH 3.0, 100 mM glycylglycine pH 4.0, 100 mM glycylglycine pH 5.0, 100 mM bistrispropane pH 6.0, 100 mM bistrispropane pH 6.5, 100 mM bistrispropane pH 7.0, 100 mM bistrispropane pH 7.5, 100 mM bistrispropane pH 8.0).
Structure (SMILES),Solubility (pH 3.0),Solubility (pH 4.0),Solubility (pH 5.0),Solubility (pH 6.0),Solubility (pH 6.5),Solubility (pH 7.0),Solubility (pH 7.5),Solubility (pH 8.0),solubility at 18 h (pH 5.0)
"CC(C)C[C@H](NC(=O)[C@H](C)NC(=O)[C@H](C)NC(=O)[C@@H](NC(=O)[C@H](CO)NC(=O)[C@H](CC(C)C)NC(=O)[C@H](CCC(=O)O)NC(=O)[C@H](CO)NC(=O)[C@H](C)NC(=O)COCCOCCNC(=O)COCCOCCNC(=O)COCCOCCNC(=O)COCCOCCNC(=O)COCCOCCNC(=O)CC[C@H](NC(=O)CCCCCCCCCCCCCCCCCCC(=O)O)C(=O)O)[C@@H](C)O)C(=O)NCC(=O)N[C@@H](CCCNC(=N)N)C(=O)N[C@@H](CC(C)C)C(=O)N[C@@H](CO)C(=O)N[C@@H](C)C(=O)N[C@@H](CCC(=O)O)C(=O)N[C@@H](CC(C)C)C(=O)N[C@@H](Cc1cnc[nH]1)C(=O)N[C@@H](CCC(=O)O)C(=O)N[C@@H](CC(C)C)C(=O)N[C@@H](C)C(=O)N[C@H](C(=O)N[C@@H](CC(C)C)C(=O)N1CCC[C@H]1C(=O)N[C@@H](CCCNC(=N)N)C(=O)N[C@H](C(=O)N[C@@H](CCC(=O)O)C(=O)N[C@H](C(=O)NCC(=O)N[C@@H](CO)C(=O)NCC(=O)N[C@@H](CO)C(=O)N1CCC[C@H]1C(N)=O)[C@@H](C)O)[C@@H](C)O)[C@@H](C)O [compound 45, [N-terminal(C20 diacid-gGlu-5xOEG), des1, 30S, 31G]mimylin] ({C20 diacid-γGlu-AEEA-AEEA-AEEA-AEEA-AEEA}-ASELSTAALGRLSAELHELATLPRTETGSGSP-NH2)",≧200 μM,≧200 μM,≧200 μM,≧200 μM,≧200 μM,≧200 μM,≧200 μM,≧200 μM,–
"CC(C)C[C@H](NC(=O)[C@H](C)NC(=O)[C@H](C)NC(=O)[C@@H](NC(=O)[C@H](CO)NC(=O)[C@H](CC(C)C)NC(=O)[C@H](CCC(=O)O)NC(=O)[C@H](CO)NC(=O)[C@H](C)NC(=O)CC[C@H](NC(=O)CCCCCCCCCCCCCCCCCCC(=O)O)C(=O)O)[C@@H](C)O)C(=O)NCC(=O)N[C@@H](CCCNC(=N)N)C(=O)N[C@@H](CC(C)C)C(=O)N[C@@H](CO)C(=O)N[C@@H](C)C(=O)N[C@@H](CCC(=O)O)C(=O)N[C@@H](CC(C)C)C(=O)N[C@@H](Cc1cnc[nH]1)C(=O)N[C@@H](CCC(=O)O)C(=O)N[C@@H](CC(C)C)C(=O)N[C@@H](C)C(=O)N[C@H](C(=O)N[C@@H](CC(C)C)C(=O)N1CCC[C@H]1C(=O)N[C@@H](CCCNC(=N)N)C(=O)N[C@H](C(=O)N[C@@H](CCC(=O)O)C(=O)N[C@H](C(=O)NCC(=O)N[C@@H](CO)C(=O)NCC(=O)N[C@@H](CO)C(=O)N[C@@H](Cc1ccccc1)C(N)=O)[C@@H](C)O)[C@@H](C)O)[C@@H](C)O [compound 61, [N-terminal(C20 diacid-gGlu), des1, 30S, 31G, 33F]mimylin] ({C20 diacid-γGlu}-ASELSTAALGRLSAELHELATLPRTETGSGSF-NH2)",≧200 μM,≧200 μM,–,≧200 μM,≧200 μM,≧200 μM,≧200 μM,≧200 μM,101 µM
"CC(C)C[C@H](NC(=O)[C@H](C)NC(=O)[C@H](C)NC(=O)[C@@H](NC(=O)[C@H](CO)NC(=O)[C@H](CC(C)C)NC(=O)[C@H](CCC(=O)O)NC(=O)[C@H](CO)NC(=O)[C@H](C)NC(=O)CC[C@H](NC(=O)CCCCCCCCCCCCCCCCCCC(=O)O)C(=O)O)[C@@H](C)O)C(=O)NCC(=O)N[C@@H](CCCNC(=N)N)C(=O)N[C@@H](CC(C)C)C(=O)N[C@@H](CO)C(=O)N[C@@H](C)C(=O)N[C@@H](CCC(=O)O)C(=O)N[C@@H](CC(C)C)C(=O)N[C@@H](Cc1cnc[nH]1)C(=O)N[C@@H](CCC(=O)O)C(=O)N[C@@H](CC(C)C)C(=O)N[C@@H](C)C(=O)N[C@H](C(=O)N[C@@H](CC(C)C)C(=O)N1CCC[C@H]1C(=O)N[C@@H](CCCNC(=N)N)C(=O)N[C@H](C(=O)N[C@@H](CCC(=O)O)C(=O)N[C@H](C(=O)NCC(=O)N[C@@H](CO)C(=O)NCC(=O)N[C@@H](CO)C(=O)N[C@@H](CO)C(N)=O)[C@@H](C)O)[C@@H](C)O)[C@@H](C)O [compound 63, [N-terminal(C20 diacid-gGlu), des1, 30S, 31G, 33S]mimylin] ({C20 diacid-γGlu}-ASELSTAALGRLSAELHELATLPRTETGSGSS-NH2)",≧200 μM,≧200 μM,≧200 μM,≧200 μM,≧200 μM,≧200 μM,≧200 μM,≧200 μM,–

# Now from value to compound:
Solubility (pH 3.0),Solubility (pH 4.0),Solubility (pH 5.0),Solubility (pH 6.0),Solubility (pH 6.5),Solubility (pH 7.0),Solubility (pH 7.5),Solubility (pH 8.0),solubility at 18 h (pH 5.0),Structure (SMILES)
≧200 μM,≧200 μM,≧200 μM,≧200 μM,≧200 μM,≧200 μM,≧200 μM,≧200 μM,–,"CC(C)C[C@H](NC(=O)[C@H](C)NC(=O)[C@H](C)NC(=O)[C@@H](NC(=O)[C@H](CO)NC(=O)[C@H](CC(C)C)NC(=O)[C@H](CCC(=O)O)NC(=O)[C@H](CO)NC(=O)[C@H](C)N)[C@@H](C)O)C(=O)NCC(=O)N[C@@H](CCCNC(=N)N)C(=O)N[C@@H](CC(C)C)C(=O)N[C@@H](CO)C(=O)N[C@@H](C)C(=O)N[C@@H](CCC(=O)O)C(=O)N[C@@H](CC(C)C)C(=O)N[C@@H](Cc1cnc[nH]1)C(=O)N[C@@H](CCC(=O)O)C(=O)N[C@@H](CC(C)C)C(=O)N[C@@H](C)C(=O)N[C@H](C(=O)N[C@@H](CC(C)C)C(=O)N1CCC[C@H]1C(=O)N[C@@H](CCCNC(=N)N)C(=O)N[C@H](C(=O)N[C@@H](CCCCNC(=O)CC[C@H](NC(=O)CCCCCCCCCCCCCCCCCCC(=O)O)C(=O)O)C(=O)N[C@H](C(=O)NCC(=O)N[C@@H](CO)C(=O)NCC(=O)N[C@@H](CO)C(=O)N1CCC[C@H]1C(N)=O)[C@@H](C)O)[C@@H](C)O)[C@@H](C)O [compound 55, [des1, 27K(C20 diacid-gGlu), 30S, 31G]mimylin]"
≧200 μM,≧200 μM,≧200 μM,≧200 μM,≧200 μM,≧200 μM,≧200 μM,≧200 μM,–,"CC(C)C[C@H](NC(=O)[C@H](CO)NC(=O)CNC(=O)[C@H](CO)NC(=O)CNC(=O)[C@@H](NC(=O)[C@H](CCC(=O)O)NC(=O)[C@@H](NC(=O)[C@H](CCCNC(=N)N)NC(=O)[C@@H]1CCCN1C(=O)[C@H](CC(C)C)NC(=O)[C@@H](NC(=O)[C@H](C)NC(=O)[C@H](CC(C)C)NC(=O)[C@H](CCC(=O)O)NC(=O)[C@H](Cc1cnc[nH]1)NC(=O)[C@H](CC(C)C)NC(=O)[C@H](CCC(=O)O)NC(=O)[C@H](C)NC(=O)[C@H](CO)NC(=O)[C@H](CC(C)C)NC(=O)[C@H](CCCNC(=N)N)NC(=O)CNC(=O)[C@H](CC(C)C)NC(=O)[C@H](C)NC(=O)[C@H](C)NC(=O)[C@@H](NC(=O)[C@H](CO)NC(=O)[C@H](CC(C)C)NC(=O)[C@H](CCC(=O)O)NC(=O)[C@H](CO)NC(=O)[C@H](C)NC(=O)CC[C@H](NC(=O)CCCCCCCCCCCCCCCCCCC(=O)O)C(=O)O)[C@@H](C)O)[C@@H](C)O)[C@@H](C)O)[C@@H](C)O)C(N)=O [compound 62, [N-terminal(C20 diacid-gGlu), des1, 30S, 31G, 33L]mimylin] ({C20 diacid-γGlu}-ASELSTAALGRLSAELHELATLPRTETGSGSL-NH2)"
